ChEMBL document CHEMBL1201862, “PubChem BioAssay data set” (2004)
Several values for one entry are separate records, joined by “and”; a condition that tells them apart may be missing. Identical values can stand only once.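 A five-concentration, 48-hour dose response in 96-well plates underlies each endpoint, interpolated linearly between surrounding concentrations. Here, GI50 denotes the concentration required for 50% inhibition of growth.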 Activity calls are given as the source filed them. No stated cut-off is given here; in the data, active = GI50 up to about 1.1 µM and inactive = higher.

Experiments:
Assay in all cases: DTP human tumour cell line panel, 48 h
SR = test system: SR
HOP-62 = test system: HOP-62
OVCAR-3 = test system: OVCAR-3
A498 = test system: A498
HL-60 = test system: HL-60
M14 = test system: M14
NCI-H522 = test system: NCI-H522
TK-10 = test system: TK-10
Malme-3M = test system: Malme-3M
HT-29 = test system: HT-29
SF-295 = test system: SF-295
SK-MEL-2 = test system: SK-MEL-2
U-251 = test system: U-251
SF-539 = test system: SF-539
UACC-257 = test system: UACC-257
SK-MEL-5 = test system: SK-MEL-5
COLO 205 = test system: COLO 205
OVCAR-5 = test system: OVCAR-5
RPMI-8226 = test system: RPMI-8226

SMILES	GI50 (SR)	GI50 (HOP-62)	GI50 (OVCAR-3)	GI50 (A498)	GI50 (HL-60)	GI50 (M14)	GI50 (NCI-H522)	GI50 (TK-10)	GI50 (Malme-3M)	GI50 (HT-29)	GI50 (SF-295)	GI50 (SK-MEL-2)	GI50 (U-251)	GI50 (SF-539)	GI50 (UACC-257)	GI50 (SK-MEL-5)	GI50 (COLO 205)	GI50 (OVCAR-5)	GI50 (RPMI-8226)
CC1CC2C3CCC4=CC(=O)C=CC4(C)C3(F)C(O)CC2(C)C1(O)C(=O)CO.Cc1cc(NS(=O)(=O)c2ccc(/N=N\c3cc(/N=N/c4ccc(S(=O)(=O)Nc5cc(C)nc(C)n5)cc4)c(OC(=O)C(Cl)Cl)c4cccc(NC(=O)C(Cl)Cl)c34)cc2)nc(C)n1	25.4 µM (inactive)	35.2 µM (inactive)	18.6 µM (inactive)	27.5 µM (inactive)	16 µM (inactive)	28.9 µM (inactive)	15 µM (inactive)	42.7 µM (inactive)	20.6 µM (inactive)	24.4 µM (inactive)	28.2 µM (inactive)	29.4 µM (inactive)	18 µM (inactive)	20.9 µM (inactive)	29.9 µM (inactive)	2.97 µM (inactive)	28.2 µM (inactive)	16.6 µM (inactive)	
CCN(CC)c1c(C(=O)/C=C/c2ccccc2)c(-c2ccccc2)nn(C)c1=O	3.21 µM (inactive)	> 100 µM (inactive)		5.43 µM (inactive)	4.22 µM (inactive)		6 µM (inactive)	> 100 µM (inactive)	2.8 µM (inactive)	5.48 µM (inactive)	6.01 µM (inactive)			21.3 µM (inactive)	8.17 µM (inactive)	5.02 µM (inactive)	5.81 µM (inactive)	6.53 µM (inactive)	
CCC1OCCN1C(C)C (centres undefined)	> 100 µM (inactive)			> 100 µM (inactive)	> 100 µM (inactive)		85.5 µM (inactive)	42 µM (inactive)	65.2 µM (inactive)		> 100 µM (inactive)	> 100 µM (inactive)	> 100 µM (inactive)	> 100 µM (inactive)	97.5 µM (inactive)	70.8 µM (inactive)	> 100 µM (inactive)	> 100 µM (inactive)	60 µM (inactive)
COc1ccc(OC)c2c(C(=O)O)c(C(C)c3ccccc3)ccc12 (centres undefined)	> 100 µM (inactive)	> 100 µM (inactive)	> 100 µM (inactive)	> 100 µM (inactive)	> 100 µM (inactive)	> 100 µM (inactive)	> 100 µM (inactive)	> 100 µM (inactive)	> 100 µM (inactive)	> 100 µM (inactive)	> 100 µM (inactive)	> 100 µM (inactive)	91.4 µM (inactive)		> 100 µM (inactive)	> 100 µM (inactive)	> 100 µM (inactive)	> 100 µM (inactive)	
COc1cc(Br)c(/C=N\c2cccc3ccc(OS(=O)(=O)c4cccc([N+](=O)[O-])c4)cc23)cc1OC	20.2 µM (inactive)	34.4 µM (inactive)	32.7 µM (inactive)	66.5 µM (inactive)			22.1 µM (inactive)		36 µM (inactive)	34.7 µM (inactive)	20.4 µM (inactive)	39.4 µM (inactive)	19.1 µM (inactive)	16.9 µM (inactive)	41.1 µM (inactive)	27.4 µM (inactive)	66.8 µM (inactive)	> 100 µM (inactive)	24 µM (inactive)
COc1ccc2cc1Oc1ccc(cc1)C[C@H]1c3cc(c(OC)cc3CCN1C)Oc1c(OC)c(OC)cc3c1[C@H](C2)N(C)CC3 [FANCHININ]	2.47 µM (inactive) and 12.1 µM (inactive)	5.94 µM (inactive)	7.46 µM (inactive)	7.33 µM (inactive) and 60.5 µM (inactive)	7.8 µM (inactive) and 99.5 µM (inactive)	26.2 µM (inactive) and 260 nM (active)	34.8 µM (inactive) and 6.61 µM (inactive)	22.9 µM (inactive) and 8.41 µM (inactive)			8.93 µM (inactive) and 36.2 µM (inactive)		35.7 µM (inactive) and 7.66 µM (inactive)	20.1 µM (inactive) and 4.78 µM (inactive)	43.1 µM (inactive) and 5.79 µM (inactive)	6.1 µM (inactive) and 57.3 µM (inactive)			4.44 µM (inactive)
